This is an account of results in patent US9527879B2, “Aster glehni extracts, fractions or compounds isolated therefrom for the treatment or prevention of hyperuricemia or gout” (KOREA INSTITUTE OF SCIENCE AND TECHNOLOGY, priority 2014, dated 2016).

The target in the assay is xanthine oxidase (UniProt P80457). Description: Inhibition of production of uric acid by xanthine/xanthine oxidase. Format: biochemical. Conditions: xanthine oxidase 0.024 units/mL, 100 μM xanthine, pH 7.5, 25° C.; mean ± SEM of triplicate experiments. As for the experimental part: Uric acid is produced from xanthine oxidation by xanthine oxidase.
Specifically, the sample and xanthine oxidase (0.024 units/mL) were mixed in 100 mM phosphate buffer (pH 7.5) and preincubated at 25° C. for 10 min. The reaction was initiated by the addition of 100 μM xanthine and incubation was further carried out at 25° C. for 30 min. […] The inhibition of uric acid production A (%) was calculated according to Equation 1. […] [Equation 1]

The term IC50 denotes the midpoint of a concentration-inhibition curve. Low readings indicate greater potency in that assay, high ones weaker potency in that assay. As to `C[C@H](/C=C/[C@@]1(O)[C@H](C)CC(=O)CC1(C)C)OC1OC(COC(=O)/C=C/c2ccc(O)c(O)c2)C(O)C(O)C1O` (stereo partly shown) [Compound 1, 6′-O-caffeoylampelopsisionoside], inhibition was half-maximal at 93 ± 1.7 µM (IC50).
For `CC(=O)/C=C/C1=C(C)C(O)C(O[C@@H]2OC(COC(=O)/C=C/c3ccc(O)c(O)c3)[C@@H](O)C(O)C2O)CC1(C)C` (stereo partly shown) [Compound 3, 6′-O-Caffeoylsonchuinoside C], it took 73.2 ± 5.1 µM to reach half-maximal inhibition (IC50).
The same measure for `COc1cc(CCCO)cc(OC)c1O[C@@H]1OC(COC(=O)/C=C/c2ccc(O)c(O)c2)[C@@H](O)C(O)C1O` (stereo partly shown) [Compound 4, 6′-O-Caffeoyldihydrosyringin]: 71.1 ± 3.9 µM; for `C/C(=C\CO)CO[C@@H]1OC(COC(=O)/C=C/c2ccc(O)c(O)c2)[C@@H](O)C(O)C1O` (stereo partly shown) [Compound 5]: 80 ± 4.9 µM.
